Measurements taken from patent publication US12459951B2, “Compounds that interact with RAS superfamily proteins for treatment of cancers, inflammatory diseases, rasopathies, and fibrotic disease” (SHY Therapeutics, LLC, priority 2022, dated 2025).

Tests used:
KRas G12D mutant = experiment: Ras GTP Binding Domain Inhibition Assay (Ras Superfamily Assay); conditions: 20 μM compound; for KRas G12D mutant + SOS: % inh.: with SOS; for KRas G12D mutant: % inh.: without SOS
Summary of the method: (§1)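 His-tagged GTPases immobilised on nickel-coated plates, pre-incubated with compound (20 μM single point, or serial dilution for IC50) 3 h at room temperature, with or without 10-30 μg/mL Sos (residues 556-1049) in the final hour. Bound Cy3- or Cy5-GTP (100 nM, 45 min) measured by fluorescence after washing.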

KRas wild type = experiment: as above; conditions: 20 μM compound; for KRas wild type + SOS: % inh.: with SOS; for KRas wild type: % inh.: without SOS
Summary of the method: as §1

Rac-1 = molecular target: T1, Rac-1 (Homo sapiens, UniProt P63000); experiment: as above; conditions: read-out: Rac-1: % inh.
T1 construct: made in house
Summary of the method: as §1

Erk1/2 phosphorylation = experiment: Erk1/2 Phosphorylation Assay (western blot), Panc-1; assay type: cell-based, human; conditions: at 10 μM, * = activation
Summary of the method: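 Phospho-Erk1/2 (Thr202/Tyr204) was detected by western blot in lysates of Panc-1 cells (KRas G12D). These had 6 h, 37° C exposure to 10 μM compound or a dilution series for IC50, in 0.3% DMSO. Cells were either starved overnight in 0.5% FBS with a 15-min 1.5 ng/ml EGF pulse, or kept unstimulated in 10% FBS.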

Compound	KRas G12D mutant + SOS: % inh. (KRas G12D mutant)	KRas G12D mutant: % inh. (KRas G12D mutant)	KRas wild type + SOS: % inh. (KRas wild type)	KRas wild type: % inh. (KRas wild type)	inhibition at 20 µM (Rac-1)	% inh of Erk1/2 phosphorylation in Panc-1 (Erk1/2 phosphorylation)
COc1ccnc(Nc2nc(-c3nccn3C)nn3cc(-c4ccn(C)n4)c(C)c23)n1.Cl [Compound 114, N-(4-Methoxypyrimidin-2-yl)-5-methyl-2-(1-methyl-1H-imidazol-2-yl)-6-(1-methyl-1H-pyrazol-3-yl)pyrrolo[2,1-f][1,2,4]triazin-4-amine hydrochloride salt]	D (D = 76-100% inhibition)	D (D = 76-100% inhibition)	D (D = 76-100% inhibition)	D (D = 76-100% inhibition)	76 to 100%	B* (26-49% activation)
COc1cc(-c2cn3nc(-c4nccn4C)nc(N[C@H]4C[C@H](OC)C4)c3c2C)ccn1 [Compound 160, N-((1r,3r)-3-Methoxycyclobutyl)-6-(2-methoxypyridin-4-yl)-5-methyl-2-(1-methyl-1H-imidazol-2-yl)pyrrolo[2,1-f][1,2,4]triazin-4-amine]	A (A = 1-25% inhibition)	0 (0 = 0% inhibition)	0 (0 = 0% inhibition)	0 (0 = 0% inhibition)	1 to 25%	A* (1-25% activation)
Cc1c(-c2ccn(C)n2)cn2nc(-c3nccn3C)nc(Nc3nccc(OCCN(C)C)n3)c12 [Compound 105, N-(4-(2-(Dimethylamino)ethoxy)pyrimidin-2-yl)-5-methyl-2-(1-methyl-1H-imidazol-2-yl)-6-(1-methyl-1H-pyrazol-3-yl)pyrrolo[2,1-f][1,2,4]triazin-4-amine]	D (D = 76-100% inhibition)	D (D = 76-100% inhibition)	D (D = 76-100% inhibition)	C (C = 50-75% inhibition)	76 to 100%	A (1-25% inhibition)
Cc1c(-c2ccn(C3CC3)n2)cn2nc(-c3nccn3C)nc(Nc3cc(N(C)C)ccn3)c12 [Compound 145, N^2-(6-(1-Cyclopropyl-1H-pyrazol-3-yl)-5-methyl-2-(1-methyl-1H-imidazol-2-yl)pyrrolo[2,1-f][1,2,4]triazin-4-yl)-N^4,N^4-dimethylpyridine-2,4-diamine]	D (D = 76-100% inhibition)	D (D = 76-100% inhibition)	D (D = 76-100% inhibition)	D (D = 76-100% inhibition)	76 to 100%	C* (46-84% activation)
COc1ccnc(Nc2nc(-c3nccn3C)nn3cc(-c4ccn(C(F)F)n4)c(C)c23)n1 [Compound 95, 6-(1-(Difluoromethyl)-1H-pyrazol-3-yl)-N-(4-methoxypyrimidin-2-yl)-5-methyl-2-(1-methyl-1H-imidazol-2-yl)pyrrolo[2,1-f][1,2,4]triazin-4-amine]	C (C = 50-75% inhibition)	C (C = 50-75% inhibition)	B (B = 26-49% inhibition)	C (C = 50-75% inhibition)	76 to 100%	D* (85-100% activation)
CO[C@@H]1CC[C@@H](Nc2nc(-c3nccn3C)nn3cc(-c4cccnc4)c(C)c23)C1 (racemic) [Compound 154, rac N-((1R,3R)-3-methoxy-cyclopentyl)-5-methyl-2-(1-methyl-1H-imidazol-2-yl)-6-(pyridin-3-yl)pyrrolo[2,1-f][1,2,4]triazin-4-amine]	D (D = 76-100% inhibition)	D (D = 76-100% inhibition)	B (B = 26-49% inhibition)	B (B = 26-49% inhibition)	50 to 75%	C* (46-84% activation)
Cc1c(-c2cccnc2)cn2nc(-c3nccn3C)nc(Nc3ccncn3)c12 [Compound 156, 5-Methyl-2-(1-methyl-1H-imidazol-2-yl)-6-(pyridin-3-yl)-N-(pyrimidin-4-yl)pyrrolo[2,1-f][1,2,4]triazin-4-amine]	D (D = 76-100% inhibition)	D (D = 76-100% inhibition)	D (D = 76-100% inhibition)	D (D = 76-100% inhibition)	76 to 100%	D* (85-100% activation)
COc1ccnc(Nc2nc(-c3nccn3C)nn3cc(-c4cccnc4)c(-c4ccccn4)c23)c1 [Compound 166, N-(4-Methoxypyridin-2-yl)-2-(1-methyl-1H-imidazol-2-yl)-5-(pyridin-2-yl)-6-(pyridin-3-yl)pyrrolo[2,1-f][1,2,4]triazin-4-amine]	D (D = 76-100% inhibition)	D (D = 76-100% inhibition)	D (D = 76-100% inhibition)	C (C = 50-75% inhibition)	76 to 100%	B* (26-49% activation)
Cc1c(-c2ccn(C)n2)cn2nc(-c3nccn3C)nc(Nc3nccn3C)c12 [Compound 106, 5-Methyl-N,2-bis(1-methyl-1H-imidazol-2-yl)-6-(1-methyl-1H-pyrazol-3-yl)pyrrolo[2,1-f][1,2,4]triazin-4-amine]	A (A = 1-25% inhibition)	B (B = 26-49% inhibition)	0 (0 = 0% inhibition)	A (A = 1-25% inhibition)	26 to 49%	0 (0% inhibition)
Cc1c(-c2ccn(C3CC3)n2)cn2nc(-c3nccn3C)nc(Nc3cc(OCCO)ccn3)c12 [Compound 146, 2-((2-((6-(1-Cyclopropyl-1H-pyrazol-3-yl)-5-methyl-2-(1-methyl-1H-imidazol-2-yl)pyrrolo[2,1-f][1,2,4]triazin-4-yl)amino)pyridin-4-yl)oxy)ethan-1-ol]	D (D = 76-100% inhibition)	D (D = 76-100% inhibition)	D (D = 76-100% inhibition)	D (D = 76-100% inhibition)	76 to 100%	D* (85-100% activation)
Cc1c(-c2ccn(C3CC3)n2)cn2nc(-c3nccn3C)nc(O)c12 [Compound 134, 6-(1-Cyclopropyl-1H-pyrazol-3-yl)-5-methyl-2-(1-methyl-1H-imidazol-2-yl)pyrrolo[2,1-f][1,2,4]triazin-4-ol]	A (A = 1-25% inhibition)	A (A = 1-25% inhibition)	0 (0 = 0% inhibition)	0 (0 = 0% inhibition)	1 to 25%	B (26-49% inhibition)
Cc1c(-c2ccn(C)n2)cn2nc(-c3nccn3C)nc(Nc3cnccn3)c12 [Compound 120, 5-Methyl-2-(1-methyl-1H-imidazol-2-yl)-6-(1-methyl-1H-pyrazol-3-yl)-N-(pyrazin-2-yl)pyrrolo[2,1-f][1,2,4]triazin-4-amine]	A (A = 1-25% inhibition)	B (B = 26-49% inhibition)	C (C = 50-75% inhibition)	A (A = 1-25% inhibition)	26 to 49%	C* (46-84% activation)
COc1cccnc1Nc1nc(-c2nccn2C)nn2cc(-c3ccn(C)n3)c(C)c12 [Compound 112, N-(3-Methoxypyridin-2-yl)-5-methyl-2-(1-methyl-1H-imidazol-2-yl)-6-(1-methyl-1H-pyrazol-3-yl)pyrrolo[2,1-f][1,2,4]triazin-4-amine]	A (A = 1-25% inhibition)	A (A = 1-25% inhibition)	0 (0 = 0% inhibition)	A (A = 1-25% inhibition)	0%	A* (1-25% activation)
